Reference: US4010264A, “7-[3-Substituted isoxazol-5-yl]-acetamido-cephalosporanic acids and their anti-bacterial use” (Koninklijke Nederlandsche Gist-en Spiritusfabriek N.V., priority 1970, dated 1977)
Converted amounts (≈) assume the structure as drawn. Structures can show the parent of a compound that is named as a salt. Where two headings read alike, the source gives them in different places.

Key:
[1] = test system: Bacillus subtilis ATCC 6633; test: MIC, agar serial dilution test; format: cell-based
[2] = test system: Staphylococcus aureus A55; test: MIC, agar serial dilution test; format: cell-based
[3] = test system: Staphylococcus aureus A321; test: MIC, agar serial dilution test; format: cell-based
[4] = test system: Streptococcus haemolyticus A266; test: MIC, agar serial dilution test; format: cell-based
[5] = test system: Streptococcus faecalis L 80; test: MIC, agar serial dilution test; format: cell-based; conditions: Enterococcus faecalis
[6] = test system: Diplococcus pneumoniae L 54; test: MIC, agar serial dilution test; format: cell-based; conditions: Streptococcus pneumoniae
Brucella melitensis A488 = test: microbe, parasite or virus in culture; format: cell-based; conditions: A488, 24 h
[7] = test system: Pasteurella multocida A723; test: MIC, agar serial dilution test; format: cell-based
[8] = test system: Klebsiella pneumoniae A809; test: MIC, agar serial dilution test; format: cell-based
Escherichia coli 65161 = test: protection test in mice, Escherichia coli; format: in vivo, female mice (Swiss SPF); conditions: ip, 168 h; Escherichia coli 65161 i.p.; method of administration intraperitoneal
[9] = blood (serum) contents after intramuscular administration in rabbits; format: in vivo, rabbits (Nieuw Zeelander); conditions: rabbit, im, 50 mg/kg intramuscular, average, read-out: Serum level
Experimental: (§1) c. […] The rabbits were provided with "Cunicon" and water ad libitum. Each test group consisted of 3 rabbits. The dose was 50 mg/kg using water as the vehicle. […] The contents of the compound in the samples were determined microbiologically (only microbiologically detected amounts, i.e. anti-bacterially active concentrations only have been indicated).

[10] = secretion of compound in urine after intramuscular administration in rabbits; format: in vivo, rabbits (Nieuw Zeelander); conditions: rabbit, im, 50 mg/kg intramuscular, average, read-out: Secretion of compound in urine in % of the administered dose
Experimental: as §1

[11] = percentages of bound serum by ultrafiltration and dialysis; format: in vitro ADME; conditions: read-out: percentage of bound serum (converted)
in vivo [12] = conditions: mouse, ip
[13] = test system: Staphylococcus aureus A355 (penicillinase-producing); test: MIC, agar serial dilution test; conditions: 24 h
[14] = test system: Staphylococcus aureus L160a (penicillinase-producing); test: MIC, agar serial dilution test; conditions: 24 h
[15] = test system: Staphylococcus aureus A 321; test: in vivo infection test in mice; conditions: A321, in Mus musculus
[16] = test system: Staphylococcus aureus A 2001; test: in vivo infection test in mice; conditions: A2001, in Mus musculus
[17] = test system: Staphylococcus aureus A 2000; test: in vivo infection test in mice; conditions: A2000, in Mus musculus
[18] = test system: Salmonella typhi murium R 172; test: in vivo infection test in mice; conditions: Salmonella enterica, in Mus musculus
[19] = test system: Pseudomonas aeruginosa A 1058; test: in vivo infection test in mice; conditions: A1058, in Mus musculus
Proteus mirabilis O.T. = test: in vivo infection test in mice; conditions: in Mus musculus
[20] = test system: Staphylococcus aureus A 2001; test: protection test in mice, Staphylococcus aureus; conditions: Staphylococcus aureus, A2001, in Mus musculus, sc, 168 h
[21] = test system: Staphylococcus aureus A 321; test: prophylactic experiment against an infection in mice; format: in vivo, female mice (Swiss)
Description: B. Activity of the compound of example III in a prophylactic experiment against an infection with Staphylococcus aureus A 321. […] Administered doses: Tested compound dissolved in physiological NaCl-solution. Group A: one dose administered four hours before the intraperitoneal infection Group B: one dose administered two hours before the intraperitoneal infection.

in vivo [22] = test: in vivo; parameters: species or system rabbits; conditions: rabbit, im, 50 mg/kg
Description: C. Serum levels of the tested compound and dicloxacillin.

binding to serum protein = format: in vitro ADME; conditions: serum protein; read-out: extent bound to serum protein
serum protein = test: binding to serum protein; format: in vitro ADME; conditions: 50 mg/kg intramuscular, rabbits
test organisms = test: M.I.C. comparison with dicloxacillin; format: cell-based; conditions: compared with dicloxacillin
Experimental: Peak blood levels of the two drugs were reached after 1 hour with the tested compound giving levels of 5.4 μg/ml and dicloxacillin 27 μg/ml. After 4 hours, these levels were 2.2 μg/ml and 7.1 μg/ml respectively. […] However, the M.I.C. values for the tested compound were approximately 5 - 10 times less so that the overall result was better and this was reflected in the in vivo results.

SMILES: CC(=O)OCC1=C(C(=O)O)N2C(=O)[C@@H](NC(=O)Cc3cccs3)[C@H]2SC1 [Cephalotin, reference compound]
- MIC ([1]; Bacillus subtilis, ATCC6633, 24 h): 0.03 µg/mL (≈ 0.0757 µM)
- MIC ([2]; Staphylococcus aureus, A55, 24 h): 0.25 µg/mL (≈ 0.631 µM)
- MIC ([3]; Staphylococcus aureus, A321, 24 h): 0.25 µg/mL (≈ 0.631 µM)
- MIC ([4]; Streptococcus, A266, 24 h): 0.06 µg/mL (≈ 0.151 µM)
- MIC ([5]; L80, 24 h): 25 µg/mL (≈ 63.1 µM)
- MIC ([6]; L54, 24 h): 0.25 µg/mL (≈ 0.631 µM)
- MIC (Brucella melitensis A488): 6 µg/mL (≈ 15.1 µM)
- MIC ([7]; Pasteurella multocida, A723, 24 h): 0.25 µg/mL (≈ 0.631 µM)
- MIC ([8]; Klebsiella pneumoniae, A809, 24 h): 0.5 µg/mL (≈ 1.26 µM)
- ED50 (Escherichia coli 65161): 115 mg/kg
- concentration at 0.5 h ([9]; after 1/2 hr.): 33900 ng/mL
- concentration at 0.25 h ([9]; after 1/4 hr.): 73800 ng/mL
- concentration at 1 h ([9]; after 1 hr.): 8500 ng/mL
- concentration at 2 h ([9]; after 2 hrs.): < 1100 ng/mL
- concentration at 4 h ([9]; after 4 hrs.): < 1000 ng/mL
- dose excreted at 6 h ([10]; after 6 hrs.): 22.2%
- dose excreted at 27 h ([10]; after 27 hrs.): 26.9%
- fraction unbound ([11]; dialysis): ~0.3
- fraction unbound ([11]; ultrafiltration): ~0.3
- LD50 (in vivo [12]): 6000 to 8000 mg/kg
- MIC [13]: 1 µg/mL (≈ 2.52 µM)
- MIC [14]: 1 µg/mL (≈ 2.52 µM)
- ED50 ([15]; ip): 1.9 mg/kg
- ED50 ([15]; po): 14.7 mg/kg
- ED50 ([15]; sc): 16.2 mg/kg
- ED50 ([16]; ip): 27.1 mg/kg
- ED50 ([16]; po): > 68.1 mg/kg
- ED50 ([17]; ip): 20 mg/kg
- ED50 ([17]; po): 147 mg/kg
- ED50 ([17]; sc): 110 mg/kg
- ED50 ([18]; ip): 79.4 mg/kg
- ED50 ([18]; sc): ~200 mg/kg
- ED50 ([19]; ip): > 215 mg/kg
- ED50 ([19]; sc): > 215 mg/kg
- ED50 (Proteus mirabilis O.T.; ip): 79.4 mg/kg
- ED50 (Proteus mirabilis O.T.; sc): 68.1 mg/kg
- ED50 [20]: 43 mg/kg

SMILES: CC(=O)OCC1=C(C(=O)O)N2C(=O)C(NC(=O)Cc3cc(-c4c(Cl)cccc4Cl)no3)C2SC1 (centres unmarked) [Example III, Sodium salt of 7-{[3-(2,6-dichlorophenyl)-isoxazol-5-yl]acetamido}cephalosporanic acid]
- MIC ([1]; ATCC6633, Bacillus subtilis ATCC 6633, 24 hours at 37° C, read-out: MIC): ~0.007 µg/mL
- MIC ([2]; Staphylococcus aureus A55, 24 hours at 37° C, read-out: MIC): 0.015 µg/mL
- MIC ([3]; Staphylococcus aureus A321, 24 hours at 37° C, read-out: MIC): ~0.007 µg/mL
- MIC ([4]; Streptococcus haemolyticus A266, 24 hours at 37° C, read-out: MIC): ~0.007 µg/mL
- MIC ([5]; L80, Streptococcus faecalis L 80, 24 hours at 37° C, read-out: MIC): 0.5 µg/mL
- MIC ([6]; L54, Diplococcus pneumoniae L 54, 24 hours at 37° C, read-out: MIC): 0.007 µg/mL
- MIC (Brucella melitensis A488): 1 µg/mL
- MIC ([7]; Pasteurella multocida A723, 24 hours at 37° C, read-out: MIC): 1 µg/mL
- MIC ([8]; Klebsiella pneumoniae A809, 24 hours at 37° C, read-out: MIC): 12.5 µg/mL
- ED50 ([21]; A321, ip, 2 h, Group B: one dose two hours before i.p. infection, administration i.p.): < 21.5 mg/kg
- ED50 ([21]; A321, ip, 4 h, Group A: one dose four hours before i.p. infection, administration i.p.): 21.5 to 46.5 mg/kg
- ED50 ([21]; A321, po, 2 h, Group B: one dose two hours before i.p. infection, administration per os): < 21.5 mg/kg
- ED50 ([21]; A321, po, 4 h, Group A: one dose four hours before i.p. infection, administration per os): ~465 mg/kg
- Cmax at 1 h (in vivo [22]): 5400 ng/mL
- Tmax (in vivo [22]): 1 h
- concentration at 1 h (in vivo [22]): 5400 ng/mL
- concentration at 4 h (in vivo [22]): 2200 ng/mL
- blood level (in vivo [22]; 4 h): 2200 ng/mL
- fraction bound to serum protein (binding to serum protein): ~0.5
- amount of free drug in the serum compared with dicloxacillin (serum protein): of the same order
- M.I.C. values, times less than dicloxacillin (test organisms): 5 - 10 times
- MIC [13]: 0.12 µg/mL
- MIC [14]: 0.06 µg/mL
- ED50 ([15]; po): 61.9 mg/kg
- ED50 ([15]; sc): 5.11 mg/kg
- ED50 ([16]; ip): 2.87 mg/kg
- ED50 ([16]; po): ~200 mg/kg
- ED50 ([16]; sc): > 215 mg/kg
- ED50 ([17]; ip): 1.78 mg/kg
- ED50 ([17]; po): > 215 mg/kg
- ED50 ([17]; sc): 75 mg/kg
- ED50 ([18]; ip): ~200 mg/kg
- ED50 ([19]; ip): > 215 mg/kg
- ED50 (Proteus mirabilis O.T.; ip): ~200 mg/kg
